Laboratory results reported in EP0968998A1, “Cosmetic compositions, ceramide analogues with anti-elastase activity and process for their preparation” (ELF ATOCHEM S.A., priority 1998, dated 2000).

Target: T1, élastase de leucocytes humains (Homo sapiens, UniProt P08246)
T1 construct: purchased Elastin Products Co. SE 563; host or cells: human leukocytes, as the enzyme's name says
T1 sequence (P08246 30-267): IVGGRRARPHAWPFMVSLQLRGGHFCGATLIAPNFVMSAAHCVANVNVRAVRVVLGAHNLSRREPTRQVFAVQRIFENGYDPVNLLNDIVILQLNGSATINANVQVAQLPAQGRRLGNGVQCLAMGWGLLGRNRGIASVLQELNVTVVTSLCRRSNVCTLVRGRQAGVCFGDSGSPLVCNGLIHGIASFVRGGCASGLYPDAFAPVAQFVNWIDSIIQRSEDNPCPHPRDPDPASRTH
Experiment: Anti-elastase activity: release of p-nitroaniline from N-succinyl-(Ala)3-p-nitroanilide, spectrophotometry at 410 nm
Format: biochemical
Details: pH 8, 37°C, pH8, 5 min preincubation, substrate 250 µM, read-out: % I (%); for inhibition at 250 µM: Concentration 250 µM; for inhibition at 500 µM: Concentration 500 µM
Source text: Les exemples qui suivent permettent d'illustrer l'invention. Dans ces exemples, on utilise les méthodes d'analyse suivantes : - Spectrographie infrarouge (IR) Les spectres sont réalisés au moyen d'un appareil PERKIN ELMER 1760 IRTF, en dispersion dans KBr à 1 %. Les valeurs sont exprimées en nombre d'onde par centimètre. - Résonance magnétique nucléaire (RMN) Les spectres sont réalisés au moyen d'un appareil BRUCKER DRX 500, à 500 MHz (^1H) et 125 MHz (^13C) dans le DMSO-d6. La calibration de l'appareil est effectuée au moyen de DMSO. Les déplacements chimiques sont exprimés en ppm. L'aspect des signaux est noté : singulet (s), doublet (d), triplet (t), quadruplet (q), multiplet (m), quintuplet (*5) et couplage AB (AB). - Mesure de l'activité anti-élastase L'activité anti-élastase est mesurée selon la méthode qui consiste à faire réagir l'élastase de leucocytes humains (référence SE 563; Elastin Products Co.; Owensville, MO, USA) avec le N-succinyl-(Ala)3-p-nitroanilide (réf. S4760; Sigma) et mesurer la libération de p-nitroaniline. On utilise le N-succinyl-(Ala)3-p-nitroanilide en solution dans le tétrahydrofurane et une solution d'élastase à 100 mg/ml dans un mélange de glycérol et de tampon acétate de sodium (50/50; v/v), pH5. L'activité de l'enzyme est mesurée à 37°C dans 100 mM de tampon Tris-HCI, pH8 contenant 0,01 % de Triton X-100 (volume/volume) et 0,02 % d'azide de sodium (poids/volume). Le céramide à tester, solubilisé dans le tétrahydrofurane (concentration en THF = 0,5 % en volume) est préincubé en présence de l'enzyme (0,05 mg/ml) dans le tampon pendant 5 minutes à 37°C. On ajoute le N-succinyl-(Ala)3-p-nitroanilide (concentration finale : 250 µM) et on mesure la libération de la p-nitroaniline dans une cuve en quartz par spectrophotométrie à 410 nm. La capacité inhibitrice du céramide est exprimée en pourcentage d'inhibition (% I) selon la relation : %I = (1 -(Vi)/(Vo))×100 [formula] dans laquelle Vi et Vo sont les vitesses d'apparition de la p-nitroaniline en présence et en absence d'inhibiteur respectivement. - Mesure de l'amélioration de la barrière cutanée a) mesure de la Perte Insensible en Eau (PIE) La mesure de la PIE permet de quantifier la très faible quantité d'eau qui diffuse passivement à travers le stratum corneum. Ce paramètre représente un très bon index de la fonction barrière du stratum corneum. Cette méthode est surtout utilisée pour contrôler l'efficacité de formules cosmétiques qui, contenant certains types de lipides sont capables de diminuer la PIE et, en conséquence, d'empêcher la déshydratation du stratum corneum. La sonde est laissée en contact de la peau pendant 2 minutes environ de façon à atteindre une position d'équilibre. PIE = D'(dP)/(dx)(gradient de pression de vapeur) [formula] Les valeurs sont exprimées en g/m^2/heure et permettent de calculer un delta de PIE = PIE (peau traitée) - PIE (peau témoin). L'appareil utilisé est un Evaporimètre EPI de Servomed. Les mesures sont effectuées sur deux groupes de 15 volontaires sains ayant une peau sèche, avant l'application du produit (t=0) et après l'application (t=0,5 heure, 1 heure, 3 heures et 6 heures) sur la face interne des deux avant-bras. L'analogue de céramide selon l'invention ou le céramide témoin est incorporé dans une crème ayant la composition suivante (en % en poids) : […]

SMILES | inhibition at 250 µM [%] | inhibition at 500 µM [%]
CCCCCCCCCCCCC/C=C/[C@@H](O)[C@H](CO)NC(=O)CCCCCCCCCCCCCCC [Référence (a), N-palmitoyl-D-érythro-1,3-dihydroxy-2-amino-4-trans octadécène, reference compound] | 81 | 100
CCCCCCCCCCCCCCCCCC(=O)N[C@@H](CO)[C@H](O)[C@H](O)CCCCCCCCCCCCCC [Référence (b), N-stéaroyl-phytosphingosine, reference compound] | 44 | 50
CCCCCCCCCCCCCCCC(=O)NC(CO)COC(=O)CCCCCCCCCCCCCCC (stereo not shown) [Exemple 1, 1-palmitoyl-2-palmitoylamino-1,3-propanediol] | 55 | 66
CCCCCCCCCCCCCCCC(=O)NC(C)(CO)COC(=O)CCCCCCCCCCCCCCC (stereo not shown) [Exemple 2, 1-palmitoyl-2-méthyl-2-palmitoylamino-1,3-propanediol] | 8 | 57
CCCCCCCCCCCCCCCC(=O)NC(CC)(CO)COC(=O)CCCCCCCCCCCCCCC (stereo not shown) [Exemple 3, 1-palmitoyl-2-éthyl-2-palmitoylamino-1,3-propanediol] | 33 | 43
